# In patent publication US20110039795A1, “2'-O,3'-N-BRIDGED MACROLIDES” (priority 2008, published 2011):
# Tested on: CD1 mice
# Test: Phorbol 12-myristate 13-acetate induced ear edema in CD1 mice
# Type: in vivo
# Settings: Mus musculus, topical, 6 h; applied topically once in a dose 500 μg/ear; PMA induced ear edema
# Protocol: Phorbol 12-Myristate 13-Acetate Induced Ear Edema in CD1 Mice
# Male CD1 mice (Charles River, France) weighing 30-40 g are randomly grouped (n=8 in test group of which the untreated ear serves as negative control; 8 in positive control group which also serves as their own negative control group). Test compounds, as well as vehicle (Trans-phase Delivery system, containing benzyl alcohol 10%, acetone 40% and isopropanol 50%) (all from Kemika, Croatia), are administered topically to the internal surface of the left ear 30 minutes prior to administration of phorbol 12-myristate 13-acetate (PMA) (Sigma, USA). Test compounds are administered at a dose 500 μg in 15 μL per ear. 30 minutes later, 0.01% PMA solution in acetone is applied topically to the inner surface of the left ear of each animal in a volume of 12 μL per ear. During the treatment and challenge, animals are anesthetized with anesthesia by inhalation. 6 h following challenge, animals are euthanized by intraperitoneal thiopental injection (PLIVA, Croatia). For assessing the auricular edema, 8 mm discs are cut out of left and right auricular pinna and weighed. The degree of edema is calculated by subtracting the weight of 8 mm disc of the untreated ear from that of the treated contralateral ear. The inhibition of edema in the treated animals is expressed as percentage compared to control mice.
row,SMILES,inhibition in vivo at 500 µg/ear
1,"CC[C@H]1OC(=O)[C@H](C)[C@@H](O[C@H]2C[C@@](C)(OC)[C@@H](O)[C@H](C)O2)[C@H](C)[C@@H](O[C@@H]2O[C@H](C)C[C@H]3[C@H]2OC(=Nc2cccc4ccccc24)N3C)[C@](C)(O)C[C@@H](C)CN(C)[C@H](C)[C@@H](O)[C@]1(C)O (single isomer, unassigned) [Example 2, 2′-O,3′-N-(Carbonimidoyl)-3′-N-demethyl-9-deoxo-9a-methyl-N′-(1-naphthyl)-9a-aza-9a-homoerythromycin A]",> 50%
2,"CC[C@H]1OC(=O)[C@H](C)[C@@H](O[C@H]2C[C@@](C)(OC)[C@@H](O)[C@H](C)O2)[C@H](C)[C@@H](O[C@@H]2O[C@H](C)C[C@H]3[C@H]2OC(=NC(C)C)N3C)[C@](C)(OC)C[C@@H](C)C(=O)N[C@H](C)[C@@H](O)[C@]1(C)O (single isomer, unassigned) [Example 7, 2′-O,3′-N-(Carbonimidoyl)-3′-N-demethyl-N′-isopropyl-6-O-methyl-9a-aza-9a-homoerythromycin A]",> 50%
3,"CCN=C1O[C@H]2[C@H](O[C@@H]3[C@@H](C)[C@H](O[C@H]4C[C@@](C)(OC)[C@@H](O)[C@H](C)O4)[C@@H](C)C(=O)O[C@H](CC)[C@@](C)(O)[C@H](O)[C@@H](C)NC(=O)[C@H](C)C[C@@]3(C)OC)O[C@H](C)C[C@@H]2N1C (single isomer, unassigned) [Example 15, 2′-O,3′-N-(Carbonimidoyl)-3′-N-demethyl-N′-ethyl-6-O-methyl-9a-aza-9a-homoerythromycin A]",> 50%
4,"CC[C@H]1OC(=O)[C@H](C)[C@@H](O[C@H]2C[C@@](C)(OC)[C@@H](O)[C@H](C)O2)[C@H](C)[C@@H](O[C@@H]2O[C@H](C)C[C@H]3[C@H]2OC(=NC(C)C)N3C)[C@](C)(OC)C[C@@H](C)C(=O)[C@H](C)[C@@H](O)[C@]1(C)O (single isomer, unassigned) [Example 11, 2′-O,3′-N-(Carbonimidoyl)-3′-N-demethyl-N′-isopropyl-6-O-methyl-erythromycin A]",> 50%
5,"CC[C@H]1OC(=O)[C@H](C)[C@@H](O[C@H]2C[C@@](C)(OC)[C@@H](O)[C@H](C)O2)[C@H](C)[C@@H](O[C@@H]2O[C@H](C)C[C@H]3[C@H]2OC(=NCCCN(CC)CC)N3C)[C@](C)(OC)C[C@@H](C)C(=O)N[C@H](C)[C@@H](O)[C@]1(C)O (single isomer, unassigned) [Example 8, 2′-O,3′-N-(Carbonimidoyl)-3′-N-demethyl-N′-[3-(diethylamino)propyl]-6-O-methyl-9a-aza-9a-homoerythromycin A]",> 50%
6,"CCN=C1O[C@H]2[C@H](O[C@@H]3[C@@H](C)[C@H](O[C@H]4C[C@@](C)(OC)[C@@H](O)[C@H](C)O4)[C@@H](C)C(=O)O[C@H](CC)[C@@](C)(O)[C@H](O)[C@@H](C)C(=O)[C@H](C)C[C@@]3(C)OC)O[C@H](C)C[C@@H]2N1C (single isomer, unassigned) [Example 14, 2′-O,3′-N-(Carbonimidoyl)-3′-N-demethyl-N′-ethyl-6-O-methyl-erythromycin A]",> 50%
7,"CC[C@H]1OC(=O)[C@H](C)[C@@H](O[C@H]2C[C@@](C)(OC)[C@@H](O)[C@H](C)O2)[C@H](C)[C@@H](O[C@@H]2O[C@H](C)C[C@H]3[C@H]2OC(=NCc2ccccc2)N3C)[C@](C)(O)C[C@@H](C)CN(C)[C@H](C)[C@@H](O)[C@]1(C)O (single isomer, unassigned) [Example 1, N′-Benzyl-2′-O,3′-N-(carbonimidoyl)-3′-N-demethyl-9-deoxo-9a-methyl-9a-aza-9a-homoerythromycin A]",> 50%
8,"CC[C@H]1OC(=O)[C@H](C)[C@@H](O[C@H]2C[C@@](C)(OC)[C@@H](O)[C@H](C)O2)[C@H](C)[C@@H](O[C@@H]2O[C@H](C)C[C@H]3[C@H]2OC(=NC(C)C)N3C)[C@](C)(O)C[C@@H](C)CN(C)[C@H](C)[C@@H](O)[C@]1(C)O (single isomer, unassigned) [Example 3, 2′-O,3′-N-(Carbonimidoyl)-3′-N-demethyl-9-deoxo-N′-isopropyl-9a-methyl-9a-aza-9a-homoerythromycin A]",> 50%
9,"CC[C@H]1OC(=O)[C@H](C)[C@@H](O[C@H]2C[C@@](C)(OC)[C@@H](O)[C@H](C)O2)[C@H](C)[C@@H](O[C@@H]2O[C@H](C)C[C@H]3[C@H]2O/C(=N/CCCN(CC)CC)N3C)[C@](C)(OC)C[C@@H](C)C(=O)[C@H](C)[C@@H](O)[C@]1(C)O (single isomer, unassigned) [Example 12, 2′-O,3′-N-(Carbonimidoyl)-3′-N-demethyl-N′-[3-(diethylamino)propyl]-6-O-methyl-erythromycin A]",> 50%
10,"CC[C@H]1OC(=O)[C@H](C)[C@@H](O[C@H]2C[C@@](C)(OC)[C@@H](O)[C@H](C)O2)[C@H](C)[C@@H](O[C@@H]2O[C@H](C)C[C@H]3[C@H]2OC(=NC)N3C)[C@](C)(OC)C[C@@H](C)C(=O)[C@H](C)[C@@H](O)[C@]1(C)O (single isomer, unassigned) [Example 13, 2′-O,3′-N-(Carbonimidoyl)-3′-N-demethyl-N′-methyl-6-O-methyl-erythromycin A]",> 50%
